# According to US20250208149A1, “WEE1 COMPOUND FOR TREATING UTERINE SEROUS CARCINOMA” (Recurium IP Holdings, LLC, priority 2022, published 2025):
# What was measured:
# Type in all cases: cell-based
# [1] = test system: HEC-59 endometrial cancer cells; test: Percent inhibition of cell growth, ZN-c3, LB-100 or ZN-c3+LB-100 (cell titer glow); conditions: HEC-59 (PPP2R1A wild-type), 72 hours; ZN-c3 400 nM, LB-100 1 μM
# Protocol: (§1) FIG. 18 depicts the percent inhibition of cell growth in HEC-59 endometrial cancer cells after treatment with ZN-c3 alone, the PP2A catalytic inhibitor LB-100 alone, or the combination of ZN-c3+LB-100. HEC-59 cell line is PPP2R1A wild-type. […] Percent inhibition is calculated using cell titer glow analysis.
# (§2) Various cancer cell lines were treated with ZN-c3 alone, the PP2A catalytic inhibitor LB-100 alone, or the combination of ZN-c3+LB-100. As in Example 1 and Example 2, the treatment period was 72 hours and percent inhibition was calculated using cell titer glow analysis.
# The endometrial cancer cell line HEC-59 was assessed for sensitivity to ZN-c3 alone, LB-100 alone, or the combination of ZN-c3+LB-100 (FIG. 18).
# [2] = test system: OV17R ovarian cancer cells; test: as above; conditions: 72 h, read-out: percent inhibition of cell growth
# Protocol: FIG. 19 depicts the percent inhibition of cell growth in OV17R ovarian cancer cells after treatment with ZN-c3 alone, the PP2A catalytic inhibitor LB-100 alone, or the combination of ZN-c3+LB-100. OV17R has the PPP2R1A missense mutation S256F. Percent inhibition is calculated using cell titer glow analysis.
# as §2, with “Following observations that both knockdown and knockout of PPP2R1A could sensitize cancer cells to Zn-C3, the effects of pharmacological inhibition of PPP2R1A with the catalytic inhibitor LB-100 were evaluated. Various” for “Various”
# The ovarian cancer cell line OV17R was assessed for sensitivity to ZN-c3 alone, LB-100 alone, or the combination of ZN-c3+LB-100 (FIG. 19).
# [3] = test system: HEC-59 endometrial cancer cells; test: Percent inhibition of cell growth, ZN-c3, LB-100 or ZN-c3+LB-100 after siCTRL or siPPP2R1A (cell titer glow); conditions: 72 hours, ZN-c3 300 nM, LB-100 1 μM
# Protocol: as §1, with “20” for “18”, “ZN-c3+LB-100 after siRNA mediated knockdown of PPP2R1A.” for “ZN-c3+LB-100. HEC-59 cell line is PPP2R1A wild-type.”
# as §2
# The endometrial cancer cell line HEC-59 was assessed for sensitivity to ZN-c3 alone, LB-100 alone, or the combination of ZN-c3+LB-100 following treatment with siCTRL or siPPP2R1A (FIG. 20).
# [4] = test system: HEC1B endometrial cancer cells; test: as above; conditions: Homo sapiens, HEC-1B, 72 h, read-out: percent inhibition of cell growth
# Protocol: as §1, with “21” for “18”, “HEC1B” for “HEC-59”, “ZN-c3+LB-100 after siRNA mediated knockdown of PPP2R1A.” for “ZN-c3+LB-100. HEC-59 cell line is PPP2R1A wild-type.”
# as §2, with “Following observations that both knockdown and knockout of PPP2R1A could sensitize cancer cells to Zn-C3, the effects of pharmacological inhibition of PPP2R1A with the catalytic inhibitor LB-100 were evaluated. Various” for “Various”
# The endometrial cancer cell line HEC1B was also assessed for sensitivity to ZN-c3 alone, LB-100 alone, or the combination of ZN-c3+LB-100 following treatment with siCTRL or siPPP2R1A (FIG. 21).
smiles,measurement,setting,value
"CN1CCN(C(=O)C2C(C(=O)O)[C@H]3CC[C@@H]2O3)CC1 (some centres unmarked) [LB-100, reference compound]",percent inhibition of cell growth,[1],approximately half of that value
same,inhibition at 1 µM,[2],~12%
same,percent inhibition of cell growth,"[3]; HEC-59, siCTRL",approximately half of that value
same,percent inhibition in siPPP2R1A treated cells compared to siCTRL treated cells,"[3]; HEC-59, siPPP2R1A",only slightly enhanced
same,inhibition at 1 µM,[4],25%
